Assay results published in patent publication US8158636B2, “Compounds and methods for kinase modulation, and indications therefor” (Plexxikon Inc., priority 2008, dated 2012).

What was measured:
Format in all cases: biochemical
Fms = Fms (Homo sapiens, UniProt P07333); experiment: Kinase activity assay, Fms; conditions: Table 1h; read-out: activity toward kinase Fms, IC50
Description: (§1) Assays for the activity of kinases, including, but not limited to, Fms, Kit, B-Raf, B-Raf V600E, c-Raf-1, and TrkA are known in the art, for example as described in US Patent Publication Number US20070032519 and U.S. patent application Ser. No. 11/473,347 (see also, PCT publication WO2007002433), the disclosures of which are hereby incorporated by reference with respect to such assays.

Kdr = Kdr (Homo sapiens, UniProt P35968); experiment: Kinase activity assay, Kdr; conditions: Table 1i; read-out: activity toward kinase Kdr, IC50
Kdr, sequence (P35968 20-1356): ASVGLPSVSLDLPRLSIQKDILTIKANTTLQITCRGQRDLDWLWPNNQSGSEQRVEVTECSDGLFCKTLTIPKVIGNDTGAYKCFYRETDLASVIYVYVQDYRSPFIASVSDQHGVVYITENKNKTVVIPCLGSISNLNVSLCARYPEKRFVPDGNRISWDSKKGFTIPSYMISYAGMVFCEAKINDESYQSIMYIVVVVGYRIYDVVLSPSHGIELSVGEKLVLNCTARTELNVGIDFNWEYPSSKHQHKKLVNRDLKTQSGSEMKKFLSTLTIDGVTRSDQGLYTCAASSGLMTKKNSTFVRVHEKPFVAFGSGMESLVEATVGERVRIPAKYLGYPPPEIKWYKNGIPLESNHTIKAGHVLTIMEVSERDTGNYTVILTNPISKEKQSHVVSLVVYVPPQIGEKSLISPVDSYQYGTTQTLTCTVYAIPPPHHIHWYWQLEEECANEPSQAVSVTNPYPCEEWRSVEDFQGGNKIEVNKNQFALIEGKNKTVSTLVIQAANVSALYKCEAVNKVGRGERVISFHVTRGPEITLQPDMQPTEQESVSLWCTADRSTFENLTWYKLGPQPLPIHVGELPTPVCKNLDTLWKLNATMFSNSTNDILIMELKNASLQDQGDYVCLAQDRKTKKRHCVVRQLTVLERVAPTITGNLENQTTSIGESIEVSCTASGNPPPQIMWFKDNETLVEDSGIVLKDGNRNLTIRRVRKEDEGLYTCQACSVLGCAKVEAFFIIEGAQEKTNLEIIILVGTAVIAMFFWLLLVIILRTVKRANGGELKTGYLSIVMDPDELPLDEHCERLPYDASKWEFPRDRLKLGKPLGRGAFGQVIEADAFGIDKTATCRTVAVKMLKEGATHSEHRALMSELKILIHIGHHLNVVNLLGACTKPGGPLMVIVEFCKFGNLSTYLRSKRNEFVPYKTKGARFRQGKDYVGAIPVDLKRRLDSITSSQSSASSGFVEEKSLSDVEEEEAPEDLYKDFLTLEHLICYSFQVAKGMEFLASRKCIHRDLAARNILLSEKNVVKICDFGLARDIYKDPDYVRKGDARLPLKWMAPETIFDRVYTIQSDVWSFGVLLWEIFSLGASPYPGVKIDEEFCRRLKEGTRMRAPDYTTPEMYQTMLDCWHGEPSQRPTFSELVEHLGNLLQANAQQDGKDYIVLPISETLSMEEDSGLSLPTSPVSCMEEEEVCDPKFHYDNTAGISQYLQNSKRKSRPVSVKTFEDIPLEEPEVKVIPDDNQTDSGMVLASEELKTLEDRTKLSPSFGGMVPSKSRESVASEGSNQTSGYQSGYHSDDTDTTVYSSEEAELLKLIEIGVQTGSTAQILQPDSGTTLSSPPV
Description: as §1

TrkA = TrkA (Homo sapiens, UniProt P04629); experiment: Kinase activity assay, TrkA; conditions: Table 1m; read-out: activity toward kinase TrkA, IC50
TrkA, sequence (P04629 33-796): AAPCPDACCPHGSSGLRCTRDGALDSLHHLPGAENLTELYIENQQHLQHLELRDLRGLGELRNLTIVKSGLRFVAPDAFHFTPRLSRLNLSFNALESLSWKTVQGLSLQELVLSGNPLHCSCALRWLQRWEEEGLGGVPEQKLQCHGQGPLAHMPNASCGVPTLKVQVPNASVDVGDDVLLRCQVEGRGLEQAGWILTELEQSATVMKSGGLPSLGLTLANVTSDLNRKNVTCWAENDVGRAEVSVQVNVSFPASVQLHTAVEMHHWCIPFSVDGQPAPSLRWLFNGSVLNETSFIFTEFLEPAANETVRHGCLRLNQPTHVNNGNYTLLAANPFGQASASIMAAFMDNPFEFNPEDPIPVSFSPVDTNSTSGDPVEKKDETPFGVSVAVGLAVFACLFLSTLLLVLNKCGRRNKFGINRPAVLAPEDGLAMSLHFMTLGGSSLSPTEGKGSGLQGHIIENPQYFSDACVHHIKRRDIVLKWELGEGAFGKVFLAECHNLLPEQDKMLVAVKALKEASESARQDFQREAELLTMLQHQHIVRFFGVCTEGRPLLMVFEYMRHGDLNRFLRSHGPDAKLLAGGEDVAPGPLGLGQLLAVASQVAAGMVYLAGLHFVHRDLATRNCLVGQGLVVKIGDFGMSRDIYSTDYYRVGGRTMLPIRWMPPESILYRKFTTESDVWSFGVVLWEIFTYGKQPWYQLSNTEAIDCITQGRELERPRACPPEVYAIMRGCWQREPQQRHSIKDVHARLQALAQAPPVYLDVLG
Description: as §1

B-Raf V600E = B-Raf V600E (Homo sapiens, UniProt P15056, V600E); experiment: Kinase activity assay, B-Raf V600E; conditions: Table 1c; read-out: activity toward kinase B-Raf V600E, IC50
B-Raf V600E, sequence (P15056 whole entry V600E): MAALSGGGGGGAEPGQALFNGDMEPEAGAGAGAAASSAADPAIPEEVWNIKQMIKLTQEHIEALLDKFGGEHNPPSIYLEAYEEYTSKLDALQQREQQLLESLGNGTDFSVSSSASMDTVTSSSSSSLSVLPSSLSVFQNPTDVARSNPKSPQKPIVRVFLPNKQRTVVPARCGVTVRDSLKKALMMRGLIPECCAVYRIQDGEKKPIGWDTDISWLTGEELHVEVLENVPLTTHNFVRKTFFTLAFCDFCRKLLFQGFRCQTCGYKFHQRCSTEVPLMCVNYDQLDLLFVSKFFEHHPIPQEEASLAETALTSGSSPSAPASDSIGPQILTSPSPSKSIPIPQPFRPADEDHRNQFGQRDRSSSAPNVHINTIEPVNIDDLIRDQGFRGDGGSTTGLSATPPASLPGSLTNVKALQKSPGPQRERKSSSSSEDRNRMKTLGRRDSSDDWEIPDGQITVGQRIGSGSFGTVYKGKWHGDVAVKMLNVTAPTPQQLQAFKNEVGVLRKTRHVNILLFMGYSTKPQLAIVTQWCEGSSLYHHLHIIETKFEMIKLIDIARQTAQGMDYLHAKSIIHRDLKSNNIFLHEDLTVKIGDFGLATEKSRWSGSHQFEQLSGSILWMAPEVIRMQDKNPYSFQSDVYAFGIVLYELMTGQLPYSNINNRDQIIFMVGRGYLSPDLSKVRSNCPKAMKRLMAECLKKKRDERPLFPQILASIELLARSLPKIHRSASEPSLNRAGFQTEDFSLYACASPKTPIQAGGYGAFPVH
Description: as §1

Kit = Kit (Homo sapiens, UniProt P10721); experiment: Kinase activity assay, Kit; conditions: Table 1j; read-out: activity toward kinase Kit, IC50
Kit, sequence (P10721 26-976): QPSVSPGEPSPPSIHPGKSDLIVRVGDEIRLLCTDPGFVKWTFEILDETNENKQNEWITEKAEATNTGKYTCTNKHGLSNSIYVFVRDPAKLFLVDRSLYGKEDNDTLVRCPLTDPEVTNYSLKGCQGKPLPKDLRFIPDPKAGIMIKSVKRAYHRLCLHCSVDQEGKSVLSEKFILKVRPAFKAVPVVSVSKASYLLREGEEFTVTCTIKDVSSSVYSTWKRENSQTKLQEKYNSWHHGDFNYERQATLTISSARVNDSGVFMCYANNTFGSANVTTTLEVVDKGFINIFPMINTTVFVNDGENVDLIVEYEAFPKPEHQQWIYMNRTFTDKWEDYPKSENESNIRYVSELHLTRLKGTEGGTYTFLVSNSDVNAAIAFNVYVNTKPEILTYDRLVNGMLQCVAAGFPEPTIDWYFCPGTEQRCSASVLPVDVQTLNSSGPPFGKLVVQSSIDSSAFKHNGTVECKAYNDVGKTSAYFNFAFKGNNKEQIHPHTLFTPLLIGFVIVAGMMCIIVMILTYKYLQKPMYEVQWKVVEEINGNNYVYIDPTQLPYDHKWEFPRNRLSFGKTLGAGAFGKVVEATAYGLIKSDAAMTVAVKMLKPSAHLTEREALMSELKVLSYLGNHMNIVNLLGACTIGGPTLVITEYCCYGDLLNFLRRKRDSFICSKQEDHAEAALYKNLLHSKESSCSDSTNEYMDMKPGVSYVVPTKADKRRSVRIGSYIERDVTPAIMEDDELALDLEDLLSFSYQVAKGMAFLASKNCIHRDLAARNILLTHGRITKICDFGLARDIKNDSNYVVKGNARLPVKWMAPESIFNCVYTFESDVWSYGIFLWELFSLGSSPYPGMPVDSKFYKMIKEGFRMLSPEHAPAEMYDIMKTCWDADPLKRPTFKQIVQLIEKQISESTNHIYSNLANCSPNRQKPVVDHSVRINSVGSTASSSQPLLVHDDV
Description: as §1

Measured: IC50

Fms, sequence (P07333 20-972): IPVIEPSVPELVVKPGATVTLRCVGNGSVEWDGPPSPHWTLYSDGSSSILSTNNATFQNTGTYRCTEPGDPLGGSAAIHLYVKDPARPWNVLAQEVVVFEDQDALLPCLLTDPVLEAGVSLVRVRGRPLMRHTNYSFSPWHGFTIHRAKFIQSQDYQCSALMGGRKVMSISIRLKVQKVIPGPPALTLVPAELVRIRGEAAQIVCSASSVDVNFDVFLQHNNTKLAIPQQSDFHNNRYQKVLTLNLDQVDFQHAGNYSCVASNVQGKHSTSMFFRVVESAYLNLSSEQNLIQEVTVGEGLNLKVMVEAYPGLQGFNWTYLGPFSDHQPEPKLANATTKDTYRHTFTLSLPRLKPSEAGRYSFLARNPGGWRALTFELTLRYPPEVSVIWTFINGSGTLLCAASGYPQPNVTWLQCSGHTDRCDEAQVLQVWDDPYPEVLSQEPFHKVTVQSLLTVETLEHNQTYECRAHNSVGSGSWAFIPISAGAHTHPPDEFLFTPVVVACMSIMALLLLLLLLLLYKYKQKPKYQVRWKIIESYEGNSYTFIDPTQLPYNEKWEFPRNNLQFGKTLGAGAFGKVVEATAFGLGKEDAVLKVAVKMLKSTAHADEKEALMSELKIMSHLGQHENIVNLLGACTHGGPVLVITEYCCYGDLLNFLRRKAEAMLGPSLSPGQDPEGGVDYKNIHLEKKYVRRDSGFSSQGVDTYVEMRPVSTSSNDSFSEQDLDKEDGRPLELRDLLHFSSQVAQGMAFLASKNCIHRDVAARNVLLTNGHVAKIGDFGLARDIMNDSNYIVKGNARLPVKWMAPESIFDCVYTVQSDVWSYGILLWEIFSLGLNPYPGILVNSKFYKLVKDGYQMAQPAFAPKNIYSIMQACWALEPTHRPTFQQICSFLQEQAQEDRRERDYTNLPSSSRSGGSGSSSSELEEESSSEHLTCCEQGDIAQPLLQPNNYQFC

Fc1nc(NCc2ccnc(C(F)(F)F)c2)ccc1Cc1c[nH]c2ncncc12 [P-0075, [6-Fluoro-5-(7H-pyrrolo[2,3-d]pyrimidin-5-ylmethyl)-pyridin-2-yl]-(2-trifluoromethyl-pyridin-4-ylmethyl)-amine]
≤ 10 µM: Fms | Kdr | TrkA

COc1cc(CNc2ccc(Cc3c[nH]c4ncncc34)c(F)n2)cc(OC)c1 [P-0065, (3,5-Dimethoxy-benzyl)-[6-fluoro-5-(7H-pyrrolo[2,3-d]pyrimidin-5-ylmethyl)-pyridin-2-yl]-amine]
≤ 10 µM: Fms | Kdr | TrkA

Fc1nc(NCc2ccc(Br)cn2)ccc1Cc1c[nH]c2ncncc12 [P-0053, (5-Bromo-pyridin-2-ylmethyl)-[6-fluoro-5-(7H-pyrrolo[2,3-d]pyrimidin-5-ylmethyl)-pyridin-2-yl]-amine]
not listed: TrkA
≤ 10 µM: all other assays above

Fc1cncc(CNc2ccc(Cc3c[nH]c4ncncc34)c(F)n2)c1 [P-0050, (5-Fluoro-pyridin-3-ylmethyl)-[6-fluoro-5-(7H-pyrrolo[2,3-d]pyrimidin-5-ylmethyl)-pyridin-2-yl]-amine]
≤ 10 µM: B-Raf V600E | Fms

COc1ncc(F)cc1CNc1ncc(Cc2c[nH]c3ncncc23)cn1 [P-0022, (5-Fluoro-2-methoxy-pyridin-3-ylmethyl)-[5-(7H-pyrrolo[2,3-d]pyrimidin-5-ylmethyl)-pyrimidin-2-yl]-amine]
not listed: TrkA
≤ 10 µM: all other assays above

CCCCc1ncc(CNc2ccc(Cc3c[nH]c4ncncc34)c(F)n2)cn1 [P-0081, (2-Butyl-pyrimidin-5-ylmethyl)-[6-fluoro-5-(7H-pyrrolo[2,3-d]pyrimidin-5-ylmethyl)-pyridin-2-yl]-amine]
≤ 10 µM: B-Raf V600E | Fms | Kdr

CS(=O)(=O)c1cc(Cl)ccc1CNc1ccc(Cc2c[nH]c3ncncc23)c(F)n1 [P-0060, (4-Chloro-2-methanesulfonyl-benzyl)-[6-fluoro-5-(7H-pyrrolo[2,3-d]pyrimidin-5-ylmethyl)-pyridin-2-yl]-amine]
≤ 10 µM: B-Raf V600E | Fms | Kdr

COc1cc(CNc2ccc(Cc3c[nH]c4ncncc34)c(F)n2)cc(OC)c1OC [P-0037, [6-Fluoro-5-(7H-pyrrolo[2,3-d]pyrimidin-5-ylmethyl)-pyridin-2-yl]-(3,4,5-trimethoxy-benzyl)-amine]
≤ 10 µM: B-Raf V600E | Fms | Kdr

Cc1ccc(CNc2ccc(Cc3c[nH]c4ncncc34)c(F)n2)nc1 [P-0062, [6-Fluoro-5-(7H-pyrrolo[2,3-d]pyrimidin-5-ylmethyl)-pyridin-2-yl]-(5-methyl-pyridin-2-ylmethyl)-amine]
not listed: TrkA
≤ 10 µM: all other assays above

COc1cncc(CNc2ccc(Cc3c[nH]c4ncncc34)c(F)n2)c1 [P-0040, [6-Fluoro-5-(7H-pyrrolo[2,3-d]pyrimidin-5-ylmethyl)-pyridin-2-yl]-(5-methoxy-pyridin-3-ylmethyl)-amine]
≤ 10 µM: B-Raf V600E | Fms

C[C@H](Nc1ccc(Cc2c[nH]c3ncncc23)c(F)n1)c1ccc(F)cc1 [P-0016, [(S)-1-(4-Fluoro-phenyl)-ethyl]-[6-fluoro-5-(7H-pyrrolo[2,3-d]pyrimidin-5-ylmethyl)-pyridin-2-yl]-amine]
not listed: TrkA
≤ 10 µM: all other assays above

Fc1cnc(Cl)cc1CNc1ccc(Cc2c[nH]c3ncncc23)c(F)n1 [P-0072, (2-Chloro-5-fluoro-pyridin-4-ylmethyl)-[6-fluoro-5-(7H-pyrrolo[2,3-d]pyrimidin-5-ylmethyl)-pyridin-2-yl]-amine]
≤ 10 µM: B-Raf V600E | Fms | Kdr

N#Cc1cc(CNc2ccc(Cc3c[nH]c4ncncc34)c(F)n2)ccn1 [P-0073, 4-{[6-Fluoro-5-(7H-pyrrolo[2,3-d]pyrimidin-5-ylmethyl)-pyridin-2-ylamino]-methyl}-pyridine-2-carbonitrile]
≤ 10 µM: B-Raf V600E | Fms | Kdr

COc1ccc(OC)c(CNc2ccc(Cc3c[nH]c4ncncc34)c(F)n2)c1 [P-0038, (2,5-Dimethoxy-benzyl)-[6-fluoro-5-(7H-pyrrolo[2,3-d]pyrimidin-5-ylmethyl)-pyridin-2-yl]-amine]
≤ 10 µM: B-Raf V600E | Fms | Kit

Fc1nc(NCc2cccnc2C(F)(F)F)ccc1Cc1c[nH]c2ncncc12 [P-0071, [6-Fluoro-5-(7H-pyrrolo[2,3-d]pyrimidin-5-ylmethyl)-pyridin-2-yl]-(2-trifluoromethyl-pyridin-3-ylmethyl)-amine]
≤ 10 µM: Fms | Kdr | TrkA

COc1ncc(F)cc1CNc1ccc(Cc2c[nH]c3ncnc(O)c23)cn1 [P-0099, 5-{6-[(5-Fluoro-2-methoxy-pyridin-3-ylmethyl)-amino]-pyridin-3-ylmethyl}-7H-pyrrolo[2,3-d]pyrimidin-4-ol]
≤ 10 µM: Fms | Kit | TrkA

Fc1ncc(Cl)cc1CNc1ccc(Cc2c[nH]c3ncncc23)c(F)n1 [P-0077, (5-Chloro-2-fluoro-pyridin-3-ylmethyl)-[6-fluoro-5-(7H-pyrrolo[2,3-d]pyrimidin-5-ylmethyl)-pyridin-2-yl]-amine]
≤ 10 µM: B-Raf V600E | Fms

Fc1nc(NCc2ccc(Cl)nc2)ccc1Cc1c[nH]c2ncncc12 [P-0045, (6-Chloro-pyridin-3-ylmethyl)-[6-fluoro-5-(7H-pyrrolo[2,3-d]pyrimidin-5-ylmethyl)-pyridin-2-yl]-amine]
not listed: TrkA
≤ 10 µM: all other assays above

FC(F)(F)c1ccc(CNc2ncc(Cc3c[nH]c4ncncc34)cn2)cn1 [P-0030, [5-(7H-Pyrrolo[2,3-d]pyrimidin-5-ylmethyl)-pyrimidin-2-yl]-(6-trifluoromethyl-pyridin-3-ylmethyl)-amine]
≤ 10 µM: Fms | Kdr | Kit

Fc1nc(NCc2ccnc(Cl)c2)ccc1Cc1c[nH]c2ncncc12 [P-0076, (2-Chloro-pyridin-4-ylmethyl)-[6-fluoro-5-(7H-pyrrolo[2,3-d]pyrimidin-5-ylmethyl)-pyridin-2-yl]-amine]
≤ 10 µM: B-Raf V600E | Fms | Kdr

COc1ccc(CNc2ncc(Cc3c[nH]c4ncncc34)cc2C)cn1 [P-0012, (6-Methoxy-pyridin-3-ylmethyl)-[3-methyl-5-(7H-pyrrolo[2,3-d]pyrimidin-5-ylmethyl)-pyridin-2-yl]-amine]
≤ 10 µM: Fms | Kdr | Kit

CCc1ncc(CNc2ccc(Cc3c[nH]c4ncncc34)c(F)n2)cn1 [P-0078, (2-Ethyl-pyrimidin-5-ylmethyl)-[6-fluoro-5-(7H-pyrrolo[2,3-d]pyrimidin-5-ylmethyl)-pyridin-2-yl]-amine]
≤ 10 µM: B-Raf V600E | Fms | Kdr

c1cc(CNc2ncc(Cc3c[nH]c4ncncc34)cn2)cc(OC2CCCC2)n1 [P-0087, (2-Cyclopentyloxy-pyridin-4-ylmethyl)-[5-(7H-pyrrolo[2,3-d]pyrimidin-5-ylmethyl)-pyrimidin-2-yl]-amine]
≤ 10 µM: Fms | Kdr | Kit

COc1cc(CNc2ccc(Cc3c[nH]c4ncncc34)c(F)n2)c(F)cn1 [P-0021, (5-Fluoro-2-methoxy-pyridin-4-ylmethyl)-[6-fluoro-5-(7H-pyrrolo[2,3-d]pyrimidin-5-ylmethyl)-pyridin-2-yl]-amine]
≤ 10 µM: B-Raf V600E | Fms | Kdr

COc1ccc(CNc2ncc(Cc3c[nH]c4ncncc34)cc2F)cn1 [P-0017, [3-Fluoro-5-(7H-pyrrolo[2,3-d]pyrimidin-5-ylmethyl)-pyridin-2-yl]-(6-methoxy-pyridin-3-ylmethyl)-amine]
≤ 10 µM: Fms | Kdr | Kit

COc1cc(F)cc(CNc2ccc(Cc3c[nH]c4ncncc34)c(F)n2)c1 [P-0083, (3-Fluoro-5-methoxy-benzyl)-[6-fluoro-5-(7H-pyrrolo[2,3-d]pyrimidin-5-ylmethyl)-pyridin-2-yl]-amine]
≤ 10 µM: Fms | Kdr | Kit
